In patent US4921871A, “Enolamides, pharmaceutical compositions and methods of use thereof for treating inflammation” (Warner-Lambert Company, priority 1987, dated 1990):
Values joined by “and” are separate entries in the source; they are usually repeats but may differ in a detail not shown here. Identical values can stand only once. Like-named read-outs stand apart in the source and are kept apart here.

Assays:
[1] = tested on: Human Leukocyte Lipoxygenase; assay: Human Leukocyte Lipoxygenase Assay (LDA-H); format: biochemical
Procedure: Whole blood is collected from normal volunteers and spun in a refrigerated centrifuge for four minutes at 1°-6° C. at 3800 g. The buffy coat is manually separated and washed twice with chilled 0.83% NH4 Cl and centrifuged at 1000 RPM for ten minutes at 4° C. The white cell is suspended in culture media-EMEM supplemented with 6% Agamma human serum, tricine buffer, and neomycin and recentrifuged at 1000 g to yield a pellet containing the leukocytes used for the preparation of the acetone pentane powder.
The acetone-pentane powder is prepared utilizing a modification of the procedure reported for human platelet lipoxygenase. See Siegel, et al, Arachidonate Metabolism via Lipoxygenase and 12-L-hydro-peroxy-5 Eicosatetraenoic Acid Peroxidase Sensitive to Antiinflammatory Drugs, Proc. Natl. Acad. Sci., U.S.A. 77:308, 1980 and D. P. Wallach and V. R. Brown, A Novel Preparation of Human Platlet Lipoxygenase, Biochem. Biophys. Acta. 663:361, 1981. Buffy coat prepared above is resuspended in 5-7 volumes of cold 0.1M Tris buffer, pH 7.4 containing 0.154M NaCl. The suspension is centrifuged at 13,300 g for ten minutes at 4° C. The resultant pellet is retained, resuspended in five volumes of cold acetone, recentrifuged at 13,300 g and resuspended in five volumes of cold pentane. The pentane suspension is centrifuged for ten minutes at 13,300 g to give a pellet which is dried in the cold under vacuum with periodic pulverization. The dry powder is stable for several weeks when stored at -80° C.
Enzyme stock solution is prepared in the following manner. About 15 mg of the acetone-pentane powder is suspended in 4 ml of cold tris buffer (0.1M, pH 7.4), allowed to stand for five minutes, and homogenized thoroughly. The homogenate is sonicated three times for 15 seconds each time, diluted to 7 ml with cold tris buffer (0.1M, pH 7.4), and centrifuged at 4° C. for 60 minutes at 13,300 g. The supernatent is retained and diluted to a total of 10 ml with cold tris buffer (0.1M, pH 7.4) to give the stock enzyme solution. Additional dilutions of 2-50 fold are done as necessary to locate optimal enzyme reaction rate in the assay described below.
Substrate solution is prepared at 100 μM or 1.0 μM concentrations of arachidonic acid or linoleic acid in 0.1M tris buffer, pH 9.0 containing 20% ethanol.
The enzyme reaction is followed spectrophotometrically by the appearance of a conjugated diene product at 234 nm. The reaction is monitored at 24° C. using a Gilford Model 2600 spectrophotometer. […] The effects of inhibitors on the reaction are compared with control reactions run under indentical conditions. Routinely, each compounds of the present invention is incubated with the enzyme for five minutes prior to addition of substrate to initiate the reaction. Inhibition expressed as IC50 as molar concentration of the compound required to reduce reaction rate to 50% control.

[2] = target: T1, human leukocyte 5-lipoxygenase (Homo sapiens, UniProt P09917); assay: 5-Lipoxygenase assay in human leukocytes, formation of 5-HETE (5LOA; 5LOA1 or 5LOA2 not specified); format: cell-based
T1 construct: endogenous in cells; host or cells: leukocytes from fresh human blood
T1 sequence (P09917 1-674): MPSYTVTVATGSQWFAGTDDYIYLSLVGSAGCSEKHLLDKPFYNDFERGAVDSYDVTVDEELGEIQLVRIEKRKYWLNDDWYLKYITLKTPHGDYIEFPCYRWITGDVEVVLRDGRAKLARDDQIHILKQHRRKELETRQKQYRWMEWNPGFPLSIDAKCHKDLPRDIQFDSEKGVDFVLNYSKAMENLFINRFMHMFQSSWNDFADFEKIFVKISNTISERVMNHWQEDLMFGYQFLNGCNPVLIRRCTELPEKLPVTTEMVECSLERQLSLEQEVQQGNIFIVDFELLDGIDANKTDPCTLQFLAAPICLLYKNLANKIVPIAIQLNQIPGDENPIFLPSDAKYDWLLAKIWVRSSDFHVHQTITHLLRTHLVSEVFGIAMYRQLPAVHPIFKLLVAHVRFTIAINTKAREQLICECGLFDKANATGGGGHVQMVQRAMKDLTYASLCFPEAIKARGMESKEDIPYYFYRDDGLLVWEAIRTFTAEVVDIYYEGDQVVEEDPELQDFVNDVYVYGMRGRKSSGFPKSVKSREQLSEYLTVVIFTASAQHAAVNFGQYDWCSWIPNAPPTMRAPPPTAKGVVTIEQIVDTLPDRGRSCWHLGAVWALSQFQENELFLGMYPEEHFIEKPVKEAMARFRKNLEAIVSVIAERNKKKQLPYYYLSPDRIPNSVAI
Source text: To Evaluate the Effect of Each Compounds as a 5-Lipoxygenase Inhibitor in Comparison to Standard Reference Agents in Human Leukocytes (5LOAl)
The purpose of this assay is to evaluate the activity of each compound as an inhibitor of human leukocyte 5-lipoxygenase.
Arachidonic acid and calcium ionophore A23l87 are obtained from Sigma (St. Louis, Mo.). Silica gel plates, GF are obtained from Analtech (Newark, Del.). Arachidonic acid, (1-^14 C) and 5-HETE (^3 H), 5 (S)-hydroxy-6-trans, 8,11,14-cis eicosatetraenoic acid, are obtained from New England Nuclear (Boston, Mass.). Six percent Dextran-70 in 0.9% NaCl is obtained from Cutter Labs (Berkeley, Calif.).
Fresh blood from normal adult men who had not received any drugs for at least the previous five days is obtained by the Community Research Clinic (WL/PD) using venipuncture and collected into heparinized vacuotainer tubes. To every 100 ml of pooled blood is added 25 ml of dextran solution (6% dextran -70 in 0.9% sodium chloride containing 3% dextrose) and this is mixed gently in a plastic cylinder. The mixture is left to stand at room temperature for at least 90 minutes. The upper layer which is rich in leukocytes and platelets is then carefully decanted into 50 ml plastic tubes and centrifuged at about 100×g for eight minutes in an IEC centrifuge and rotor number 269 (about 600 rpm). The supernatant fluid is discarded and the pellet is resuspended in 10 ml of 0.87% ammonium chloride for exactly two minutes. This procedure is to lyse completely contaminating red blood cells. Leukocytes are then separated by centrifugation for ten minutes. The pellet is washed three times by suspension in 20 ml PBS (sodium chloride, 7.1 g; Na2 HPO4, 1.15 g; KH2 PO4, 0.2 g, and KCl, 0.2 g/L) and centrifuged as before. The final pellet is suspended in PBS containing 0.87 mM CaCl2. Viability of the cells is then checked using trypan blue exclusion method and is found to be over 90%.
Leukocyte cells in suspension (0.98 ml) are incubated with or without test compounds for five minutes at 37° C. in a shaking water bath. At this time a 17 μl mixture is prepared per 1 ml of cell suspension: 100 mM arachidonic acid, 1 μl, 0.05 μCi ^14 C-arachidonic acid in 5 .rho.l; 1 mM calcium ionophore A23187, 10 μl (1). This mixture is added and the incubation continued for five minutes. The reaction is stopped by adding four volumes of absolute ethanol and the mixture is kept in ice for 30 minutes. The floculated precipitate is separated by centrifugation at about 37,000×g for 20 minutes (Beckman Instruments rotor number 40). The alcohol extract is taken to dryness under a stream of nitrogen and the residue is dissolved in 100-200 μl absolute ethanol. At the time any turbidity is removed by centrifugation. An aliquot (25-50 μl) is applied onto 20×20 cm silica gel TLC plate and developed using the following solvent system: diethyl ether, petroleum ether (2040° C.), acetic acid (50:50: 1 v/v). Zones of 1 cm apart are scraped from the TLC plate and transferred to mini-vials. Methanol (0.5 ml) is added to dissolve the radioactivity adsorbed to the silica gel and scintillation fluid (H.P., Beckman), 5 ml is then added and vials are counted in a liquid scintillation counter. A sample of ^3 H-5-HETE is applied and used for the identification of the formed 5-HETE.
Total radioactivity in the test as well as the control samples are normalized and the amount of 5-HETE present is calculated accordingly.
IC50 values are defined as the concentrations of test agents which caused a 50% inhibition of the formation of 5-HETE as compared to control and are determined by inspection of the concentration-response curves.
The formation of 5-HETE in human leukocytes is considered a measure of 5-lipoxygenase activity. The protocol is described in the following.
Fresh heparinized or EDTA treated human blood is mixed with 6% dextran-3% dextrose in isotonic saline in the ratio 0.25 ml dextran solution per 1.0 ml blood. […]

For `COc1ccc(CCc2ccc(NC(=O)C(=O)C3=C(O)c4ccccc4S(=O)(=O)C3)cc2)cc1OC` [Example 3, N-[4-[2-(3,4-Dimethoxyphenyl)ethyl)phenyl]-4-hydroxy-α-oxo-2H-1-benzothiopyran-3-acetamide, 1,1-dioxide], the “LDAH, % Inhibition” value ([1]; 1.00 E -5 M) was 0.0% and the “LDAH, % Inhibition” value ([1]; 2.50 E -5 M) was 0.0%.
With `O=C(Nc1ccc(Cc2ccc(O)c(O)c2)cc1)C1CS(=O)(=O)c2ccccc2C1=O` (centres unmarked) [Example 14, N-[4-[(3,4-Dihydroxyphenyl)methyl]phenyl]-3,4-dihydro-4-oxo-2H-1-benzothiopyran-3-carboxamide, 1,1-dioxide] the “LDAH, % Inhibition” value ([1]; 2.50 E -5 M) was 0.0%.
With `O=C(Nc1ccc(CCCc2ccc(O)c(O)c2)cc1)C1CS(=O)(=O)c2ccccc2C1=O` (centres unmarked) [Example 22] the IC50 ([1]; conjugated diene at 234 nm, pH 9.0, 24 °C, read-out: LDAH, concentration for 50% inhibition (IC)) was 13 µM.
With `O=C(Nc1ccc(CCCCc2ccc(O)c(O)c2)cc1)C1CS(=O)(=O)c2ccccc2C1=O` (centres unmarked) [Example 23, N-[4-[4-(3,4-Dihydroxyphenyl)butyl]phenyl]-3,4-dihydro-4-oxo-2H-1-benzothiopyran-3-carboxamide, 1,1-dioxide] the “LDAH, % Inhibition” value ([1]; 2.50 E -5 M) was 0.0%.
With `COc1ccccc1CCc1ccc(NC(=O)C2=C(O)c3ccccc3S(=O)(=O)C2)cc1` [Example 37] the “LDAH, % Inhibition” value ([1]; 8.00 E -5 M) was 0.0%.
For `Cc1ccccc1CCc1ccc(NC(=O)C2=C(O)c3ccccc3S(=O)(=O)C2)cc1` [Example 43], the “LDAH, % Inhibition” value ([1]; 8.00 E -5 M) was 0.0%.
With `Cc1ccc(CCc2ccc(NC(=O)C3CS(=O)(=O)c4ccccc4C3=O)cc2)cc1` (centres unmarked) [Example 45] the “LDAH, % Inhibition” value ([1]; 8.00 E -5 M) was 0.0%.
`CCOC(=O)c1ccc(CCc2ccc(NC(=O)C3CS(=O)(=O)c4ccccc4C3=O)cc2)cc1` (centres unmarked) [Example 47, 4-[2-[4-[[(3,4-Dihydro-4-oxo-2H-1-benzothiopyran-3-yl)carbonyl]amino]phenyl]ethyl]benzoic acid, ethyl ester, 1,1-dioxide] was tested, and the “LDAH, % Inhibition” value ([1]; 8.00 E -5 M) was 0.0%.
`CCCCOc1ccc(CCc2ccc(NC(=O)C3CS(=O)(=O)c4ccccc4C3=O)cc2)cc1` (centres unmarked) [Example 48] was tested, and the “LDAH, % Inhibition” value ([1]; 2.50 E -5 M) was 0.0%.
With `COc1ccc(CCc2ccc(NC(=O)C3CS(=O)(=O)c4ccccc4C3=O)cc2)cc1NC(C)=O` (centres unmarked) [Example 50, N-[4-[2-(3-Acetylamino-4-methoxy)ethyl]phenyl]-3,4-dihydro-4-oxo-2H-1-benzothiopyran-3-carboxamide, 1,1-dioxide] the “LDAH, % Inhibition” value ([1]; 8.00 E -5 M) was 0.0%.
`COc1ccc(CCc2ccc(NC(=O)C3=C(O)c4ccccc4S(=O)(=O)N3C)cc2)cc1OC` [Example 83, N-[4-[2-(3,4-Dimethoxyphenyl)ethyl)phenyl]-4-hydroxy-2-methyl-2H-1,2-benzothiazine-3-carboxamide, 1,1-dioxide] was tested, and the “5LOA, % Inhibition” value [2] was “+1.6%” and the “5LOA, % Inhibition” value ([2]; 2.00 E 0 M) was 9.2%.
`O=C(Nc1ccc(CCc2ccc(Cl)c(Cl)c2)cc1)C(=O)c1oc2cc3ccccc3cc2c1O` [Example 113, Naphtho[2,3-b]furan-2-acetamide, N-[4-[2-(3,4-dichlorophenyl)ethyl]phenyl]-3-hydroxy-α-oxo] was tested, and the “5LOA, % Inhibition” value ([2]; 1.00 E -5 M) was 15.3%, the “5LOA, % Inhibition” value ([2]; 2.00 E -5 M) was 33.7% and the “5LOA, % Inhibition” value ([2]; 5.00 E -6 M) was 6.3%.
With `O=C(Nc1ccc(CCc2ccc(Cl)c(Cl)c2)cc1)c1sc2ccccc2c1O` [Example 144] the “5LOA, % Inhibition” value ([2]; 2.00 E -5 M) was 42.5% and the “5LOA, % Inhibition” value ([2]; 5.00 E -6 M) was 36.0%.
In the case of `O=C(Nc1ccc(CCc2cc(C(F)(F)F)cc(C(F)(F)F)c2)cc1)c1sc2ccccc2c1O` [Example 148, Benzo[b]thiophene-2-carboxamide, N-[4-[2-[3,5-bis-(trifluoromethyl)phenyl]ethyl]phenyl]-3-hydroxy], the “5LOA, % Inhibition” value ([2]; 2.00 E -5 M) is reported as 19.0% and the “5LOA, % Inhibition” value ([2]; 5.00 E -6 M) is reported as “+7.3%”.
For `CCCCCCCCCCc1ccc(NC(=O)C(=O)C2=C(O)c3ccccc3OC2)cc1` [Example 151, N-(4-Decylphenyl)-4-hydroxy-α-oxo-2H-1-benzopyran-3-acetamide], the “5LOA, % Inhibition” value ([2]; 1.00 E -5 M) was 13.9% and the “5LOA, % Inhibition” value ([2]; 4.00 E -5 M) was 18.0%.
For `COc1ccc(CCc2ccc(NC(=O)C(=O)C3=C(O)c4ccccc4OC3)cc2)cc1OC` [Example 152], the “5LOA, % Inhibition” value ([2]; 1.00 E -5 M) was 23.0%, the “5LOA, % Inhibition” value ([2]; 2.00 E -5 M) was 38.1% and 33.9% and the “5LOA, % Inhibition” value ([2]; 4.00 E -5 M) was 76.3%. The “5LOA, % Inhibition” value ([2]; 8.00 E -5 M) was 79.2%.
With `O=C(Nc1ccc(CCc2ccc(Cl)c(Cl)c2)cc1)C(=O)C1=C(O)c2ccccc2OC1` [Example 155, 2H-1-Benzopyran-3-acetamide, N-[4-[2-(3,4-dichlorophenyl)ethyl]phenyl]-4-hydroxy-α-oxo] the “5LOA, % Inhibition” value ([2]; 2.00 E -5 M) was 10.1%, the “5LOA, % Inhibition” value ([2]; 4.00 E -5 M) was 2.3% and the “5LOA, % Inhibition” value ([2]; 5.00 E -6 M) was “+7.6%”.
